{"source": "patent US9346830B2", "about": "“Method for producing amino acid chelate compounds, amino acid chelate compounds and use of amino acid chelate compounds” (ISF AG, priority 2011, dated 2016)", "key": {"[1]": {"details": "for pH value upon addition to water: 45° C., aqueous solution", "description": "The procedure for both syntheses was identical so that they are summarized here. 54 g of CaO or respectively MgO were each subjected to a 10-minute activation. In order to have a sufficiently high operating temperature for the thermal activation, the empty mill was already brought to an operating temperature of 110° C. before the experiments. After the mechanical activation, a thermal activation of respectively 15 min. took place in both cases."}, "bulk material properties": {"assay": "bulk material properties", "format": "physicochemical", "details": "water content <2%", "text": "The grain shape was examined with the scanning electron microscope and produced the typical, needle-shaped crystals of the glycinates and their agglomerates. With respect to the bulk material properties, the particle distribution analysis found a d50 value of 50 μm. The material is free-flowing, has a water content of <2% and is stable."}}}
{"smiles": "NCC(=O)[O-].NCC(=O)[O-].[Ca+2]", "note": "[calcium glycinate]", "values": [{"measurement": "pH value upon addition to water", "setting": "[1]", "result": 7.5}]}
{"smiles": "[O]=[Mg]", "note": "[MgO]", "values": [{"measurement": "stability (non-dissolution) in the presence of HCl", "setting": "[1]", "result": "stable up to pH 0"}]}
{"smiles": "NCC(=O)[O-].NCC(=O)[O-].[Cu+2]", "note": "[Example 1, bis (glycinato) copper]", "values": [{"measurement": "stability of the material", "setting": "bulk material properties", "result": "stable"}]}
{"smiles": "NCC(=O)[O-].NCC(=O)[O-].[Mg+2]", "note": "[magnesium glycinate]", "values": [{"measurement": "pH value upon addition to water", "setting": "[1]", "result": 8}]}
